Data published in patent US10668174B2, “Organ protection in PSMA-targeted radionuclide therapy of prostate cancer” (Molecular Insight Pharmaceuticals, Inc., priority 2014, dated 2020).
Like-named read-outs stand apart in the source and are kept apart here.

Tests used:
[1] = doses of up to 750 mg (~10 mg/kg), 25 healthy subjects, mean body weight 71 kg; cited from earlier work
[2] = PET-based dosimetry; cited from earlier work
[3] = Example 3: serial 68Ga-MIP-1558 PET of the salivary region with saline or PMPA; assay type: in vivo; conditions: rats, PMPA 10 mg/kg
Method: (§1) MIP-1558 was evaluated after labeling with ^68Ga and imaging in an animal PET. […] Both tumor and kidney uptake was determined in a volume of interest (VOI).

LNCaP tumor = assay: Example 3: 68Ga-MIP-1558 animal PET, PMPA after 1 hour baseline scan; assay type: in vivo, BALB/c nude mice; conditions: for kidney uptake SUVmax of 68Ga-MIP1558: PMPA 50 mg/kg; for mean tumor uptake SUVmax of 68Ga-MIP1558: after PMPA 50 mg/kg
Method: as §1

LNCaP tumors = assay: Example 1: planar scintigraphy of 125I-MIP-1095, PMPA injected 16 hours later; assay type: in vivo, BALB/c nude mice
Method: Mice bearing LNCaP tumors of 1.5 cm diameter were injected via the tail vein with 37 MBq of ^125I-MIP-1095 in 100 μl at a specific activity of >1,000 mCi/[…]. Mice were imaged at a baseline time of 16 hours post injection giving enough time for tracer clearance from the blood stream and kidney calices.

PSMA = conditions: simultaneous coinjection of 50 mg/kg PMPA; cited from earlier work
[4] = group 2, PMPA 0.5 mg/kg IV 16 hours post tracer
[5] = groups 3, 4 and 5, 0.05, 0.15 and 0.5 mg/kg

Method for LNCaP xenografts: Blood and tissues were collected 18 hours after intravenous injection of ^125I-MIP-1095 (2 hours after displacing agent injections). Gamma-counter readouts were obtained for each sample and expressed as percent injected dose per gram of tissue using gamma-counter readout of the dosing solution as a reference.
The dosing solution was prepared fresh the day of administration.
Cold MIP-1095 was stored protected from light at −80° C. until use. The compound was formulated in a vehicle of sterile saline. For dosing of the 0.50 mg/kg group, the cold MIP-1095 was placed into a sterile vial and the appropriate amount of saline was added and mixed well by vortexing to form a clear solution with a pH value of 6.96. Dosing solutions for the 0.15 mg/kg and 0.05 mg/kg groups were prepared by direct (not serial) dilution of the dosing solution from the 0.5 mg/kg group with complete vehicle. The dosing solutions were prepared fresh the day of administration.
For dosing, the stock solution (colorless) was thawed in a 37° C. water bath and diluted 1:1 with sterile saline for a fixed 0.1 mCi/ml solution for dosing.
The pre-implantation cell viability was 97%. […] The cell suspension was maintained on wet ice during implantation. Following implantation, an aliquot of the remaining cells was diluted with a trypan blue solution and counted to determine the post-implantation cell viability (96%).
Test animals were implanted subcutaneously, high in the axilla (just under the fore limb) on Day 0 with 5.0E+06 cells in 0.2 ml of 50% serum-free medium:50% Matrigel® using a 27-gauge needle and syringe.
All mice were sorted into study groups based on caliper measurement estimation of tumor burden. The mice were distributed to ensure that the mean tumor burden for all groups was within 10% of the overall mean tumor burden for the study population. Treatment began on Day 25. Mice were administered test agent via intravenous injections. The mice were administered a fixed volume injection of 100 μl (approximately 4 ml/kg) via the tail vein, using a 28-gauge needle and insulin syringe. A fresh needle and syringe was used for each mouse.
Group 1—^125I-MIP-1095+Saline, 0.4 mCi/kg (0.005 mg/kg)+100 μl fixed volume, IV+IV, “Control”; test article at 0 hours, saline 16 hours post test article.

SMILES: O=C(O)CCC(CCCS)C(=O)O (stereo not drawn) [2-MPPA, 2-(3-mercaptopropyl)pentanedioic acid]
- safety and tolerability [1]: safe and generally well tolerated

SMILES: O=C(O)CC[C@H](NC(=O)N[C@@H](CCCCNC(=O)Nc1ccc([123I])cc1)C(=O)O)C(=O)O [124I-MIP1095]
- off-target radiation dose, kidneys [2]: 1.4 mSv/MBq
- off-target radiation dose, liver [2]: 1.7 mSv/MBq
- off-target radiation dose, salivary glands [2]: 3.8 mSv/MBq
- radiation dose, red marrow [2]: 0.37 mSv/MBq

SMILES: O=C(O)CC[C@H](NC(=O)N[C@@H](CCCCNC(=O)Nc1ccc([123I])cc1)C(=O)O)C(=O)O [125I-MIP-1095]
- exposure in all other tissues and organs (including salivary glands) (LNCaP xenografts; male, Taconic Nude (CrTac:NCr-Foxn1nu), mouse, in vivo, 18 h): less than 1 % of ID/g
- exposure in LNCaP tumors relative to other tissues (LNCaP xenografts; mouse, in vivo, iv): highest exposure

SMILES: O=C(O)CC[C@H](NC(=O)N[C@@H](CCC(=O)N[C@@H](CCCCN(Cc1nccn1CC(=O)N(CC(=O)O)CC(=O)O)Cc1nccn1CC(=O)N(CC(=O)O)CC(=O)O)C(=O)O)C(=O)O)C(=O)O [MIP-1404]
- washout from the kidneys without intervention (LNCaP; mouse, in vivo): fast washout

SMILES: O=C(O)CCC(CP(=O)(O)O)C(=O)O (stereo not drawn) [PMPA, 2-(phosphonomethyl)pentanedioic acid]
- change of salivary region uptake due to the PMPA intervention [3]: there does not appear to be a measurable change
- salivary region SUVmax of 68Ga-MIP-1558, mean ([3]; 1 hour post injection): 0.82
- salivary region SUVmax of 68Ga-MIP-1558, mean ([3]; 3 hours post injection): 0.23
- kidney uptake SUVmax of 68Ga-MIP1558 (LNCaP tumor; 2 hours post injection): 1.87
- kidney uptake SUVmax of 68Ga-MIP1558 (LNCaP tumor; 3 hours post injection): 1.77
- mean tumor uptake SUVmax of 68Ga-MIP1558 (LNCaP tumor; 2 hours post injection): 0.40
- mean tumor uptake SUVmax of 68Ga-MIP1558 (LNCaP tumor; 3 hours post injection): 0.39
- residual kidney uptake of MIP-1404, % of baseline (PMPA 1 mg/kg, 2 hours): 13%
- residual kidney uptake of MIP-1404, % of baseline (PMPA 1 mg/kg, 4 hours): 9%
- residual kidney uptake of MIP-1404, % of baseline (PMPA 10 mg/kg, 2 hours): 15%
- residual kidney uptake of MIP-1404, % of baseline (PMPA 10 mg/kg, 4 hours): 10%
- residual kidney uptake of MIP-1404, % of baseline (PMPA 50 mg/kg, 2 hours): 11%
- residual kidney uptake of MIP-1404, % of baseline (PMPA 50 mg/kg, 4 hours): 7%
- exposure of 125I-MIP-1095 in LNCaP tumors and all other organs and tissues (LNCaP xenografts; [4]): little changed
- exposure of 125I-MIP-1095 in the kidneys (LNCaP xenografts; [4]): greatly reduced
- residual tumor uptake of 125I-MIP-1095, % of 16 hour baseline (LNCaP tumors; 2 hours after PMPA 0.2 mg/kg): 98%
- residual tumor uptake of 125I-MIP-1095, % of 16 hour baseline (LNCaP tumors; 2 hours after PMPA 1 mg/kg): 93%
- residual tumor uptake of 125I-MIP-1095, % of 16 hour baseline (LNCaP tumors; 2 hours after PMPA 10 mg/kg): 77%
- residual tumor uptake of 125I-MIP-1095, % of 16 hour baseline (LNCaP tumors; 2 hours after PMPA 50 mg/kg): 75%
- decrease in tumor uptake (LNCaP tumors; PMPA 0.2 mg/kg): < 5%
- renal displacement of tracer (LNCaP tumors; PMPA 0.2 mg/kg (lower dose)): only sub-totally displaced
- displacement of 125I-MIP-1095 from the kidneys (LNCaP tumors; PMPA 0.2 mg/kg, 16 hours after tracer): high significant (p<0.01) displacement
- effect on tumor uptake (LNCaP tumors; PMPA 1.0 mg/kg): < 10%
- renal displacement of tracer (LNCaP tumors; PMPA 1.0 mg/kg): near total renal displacement
- kidney washout of 125I-MIP-1095 vs 0.2 mg/kg dose (LNCaP tumors; PMPA 1 mg/kg, p<0.01): even higher kidney washout
- displacement of renal activity of 125I-MIP-1095 (LNCaP tumors; PMPA 16 hours after MIP-1095, all PMPA doses (0.2-50 mg/kg)): rapid and quantitative relevant displacement
- kidney-protective effect vs 1 mg/kg (LNCaP tumors; PMPA doses greater than 1 mg/kg (10, 50 mg/kg)): did not improve the kidney-protective effect
- blocking of radiolabeled MIP-1095 binding sites in tumor and kidneys (PSMA): complete blocking
- difference in MIP-1404 tumor uptake vs controls (LNCaP; PMPA 50 mg/kg): not significant
- washout of MIP-1404 from kidney vs controls (LNCaP; PMPA 50 mg/kg after baseline scan, at 2 and 4 hours): significantly (p<0.01) enhanced

SMILES: O=C(O)CC[C@H](NC(=O)N[C@@H](CCCCNC(=O)Nc1ccc(I)cc1)C(=O)O)C(=O)O [cold MIP-1095]
- exposure in other organs (LNCaP xenografts; group 4 (0.15 mg/kg)): little changed
- reduction of LNCaP tumors exposure compared to negative control (LNCaP xenografts; group 4 (0.15 mg/kg)): 1.2 fold
- reduction of kidney exposure compared to negative control (LNCaP xenografts; group 4 (0.15 mg/kg)): 5 fold
- 125I-MIP-1095 kidney exposure (LNCaP xenografts; [5]): dose-dependently reduced
- LNCaP tumors exposure (LNCaP xenografts; [5]): dose-dependent decrease
- liver, stomach, large and small intestines exposure (LNCaP xenografts; [5]): dose-dependent increase
- reduction in kidney exposure compared with positive control (LNCaP xenografts; highest dose (0.5 mg/kg)): equivalent to the one observed for positive control
